In patent US11084784B2, “ROR-gamma modulators and uses thereof” (PIRAMAL ENTERPRISES LIMITED, priority 2014, dated 2021):

biological target: RORγt (Homo sapiens (Human), UniProt P51449); assay: RORγt luciferase reporter assay in CHO-K1 cells (RORgamma inhibitory activity); format: cell-based; conditions: CHO-K1 cells stably transfected with RORγt, transiently transfected with pFR Luc; 18-20 hours treatment; luminescence; read-out: In-vitro IC50 value IC50
Sequence (P51449 other isoform, or with tags, fused parts or gaps, species assumed): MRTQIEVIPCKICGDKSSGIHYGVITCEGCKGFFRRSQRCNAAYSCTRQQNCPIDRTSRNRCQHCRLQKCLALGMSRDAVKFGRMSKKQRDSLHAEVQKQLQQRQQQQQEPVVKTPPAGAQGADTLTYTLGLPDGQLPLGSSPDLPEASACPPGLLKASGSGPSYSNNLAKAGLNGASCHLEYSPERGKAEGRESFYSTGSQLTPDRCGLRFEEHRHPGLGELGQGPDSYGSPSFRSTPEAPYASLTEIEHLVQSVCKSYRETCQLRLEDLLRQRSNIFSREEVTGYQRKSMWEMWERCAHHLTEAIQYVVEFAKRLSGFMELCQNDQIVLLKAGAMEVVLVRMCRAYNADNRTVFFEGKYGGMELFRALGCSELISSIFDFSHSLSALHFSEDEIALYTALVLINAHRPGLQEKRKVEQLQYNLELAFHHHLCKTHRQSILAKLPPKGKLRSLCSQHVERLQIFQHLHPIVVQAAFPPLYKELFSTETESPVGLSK
Protocol: The representative compounds are referred to as the test compounds.
CHO-K1 cells stably transfected with RORγt are maintained in MEM-EBS with 5% FBS, 1% penicillin streptomycin solution and 1 mg/mL G418. The cells are seeded at a density of 200000 cells/mL in white 96 well flat bottom plate. Post 16-18 hours incubation, the cells are transiently transfected with pFR Luc (50 ng/well DNA) for four hours. The cells are then treated with different doses of the test compounds in MEM EBS media with 10% FBS and 1% penicillin streptomycin. DMSO is used as vehicle control. After 18-20 hours treatment, the cells are lysed with lysis buffer (40 mM HEPES, 20 mM EGTA, 50 mM β-glycerophosphate, 10% glycerol and 1% Triton X-100 in distilled water) for 0.5 hour and luminescence is read using Tecan Safire reader at 1000 milli second integration time.

Row | Compound | IC50
1 | CCS(=O)(=O)c1ccc(CC(=O)Nc2ccc(C3=CCC(=O)CC3)c(C(F)(F)F)c2)cc1 [Example 24, 2-(4-(Ethylsulfonyl)phenyl)-N-(4′-oxo-2-(trifluoromethyl)-2′,3′,4′,5′-tetrahydro-[1,1′-biphenyl]-4-yl)acetamide] | 0.01 to 50 nM
2 | CCS(=O)(=O)c1ccc(CC(=O)Nc2ccc(C3=CCC(O)CC3)c(C(F)(F)F)c2)cc1 (centres unmarked) [Example 34, 2-(4-(Ethylsulfonyl)phenyl)-N-(4′-hydroxy-2-(trifluoromethyl)-2′,3′,4′,5′-tetrahydro-[1,1′-biphenyl]-4-yl)acetamide] | 0.01 to 50 nM
3 | CCS(=O)(=O)c1ccc(CC(=O)Nc2ccc3c(c2)CCCC3(O)c2ccc(OC)cc2)cc1 (centres unmarked) [Example 43, 2-(4-(Ethylsulfonyl)phenyl)-N-(5-hydroxy-5-(4-methoxyphenyl)-5,6,7,8-tetrahydronaphthalen-2-yl)acetamide] | 0.01 to 50 nM

Results, then the compound that gave them:

Row | IC50 | Compound
4 | 50 to 100 nM | CCS(=O)(=O)c1ccc(CC(=O)Nc2ccc(OC3CCCCC3)c(C(F)(F)F)c2)cc1 [Example 23, N-(4-(Cyclohexyloxy)-3-(trifluoromethyl)phenyl)-2-(4-(ethylsulfonyl)phenyl)acetamide]
5 | 0.01 to 50 nM | CCS(=O)(=O)c1ccc(CC(=O)Nc2ccc(C3CCCCC3)cc2)cc1 [Example 25, N-(4-Cyclohexylphenyl)-2-(4-(ethylsulfonyl)phenyl)acetamide]
